Results as given in patent publication US20100297112A1, “COMBINATIONS COMPRISING DMXAA FOR THE TREATMENT OF CANCER” (Antisoma Research Limited, priority 2005, published 2010).
Like-named read-outs stand apart in the source and are kept apart here.

Assays:
[1] = system: A549 (lung carcinoma) xenografts; test: A549 xenograft study with paclitaxel triple combination (Example 2); format: in vivo, mice; settings: for Drug deaths: Paclitaxel 5, Avastin 5, DMXAA 21 mg/kg by injection; for Regression Duration: days tumour volume less than original treatment volume; for Tumour Growth Delay: treated versus control tumours to quadruple in volume (control 25 days); for Median VQT: tumour volume quadrupling time; for Response CR (Complete Response): undetectable tumour over two weeks; for Response PD (Progressive Disease): ≧50% increase in tumour size; for Response PR (Partial Response): ≧50% reduction in tumour size sustained over two weeks
Description: The experimental set-up of this example with respect to the xenografts, mice and cell line is as described in Example 1 above.

[2] = system: A549 (lung carcinoma) xenografts; settings: for Regression Duration: Example 1, days tumour volume less than original treatment volume; for Tumour Growth Delay: Example 1, treated versus control tumours to quadruple in volume (control 25 days); for Median VQT: Example 1, tumour volume quadrupling time; for Response CR (Complete Response): Example 1, undetectable tumour over two weeks; for Response PR (Partial Response): Example 1, ≧50% reduction in tumour size sustained over two weeks
Description: (§1) Xenografts for human lung and colorectal cancers are set-up in groups of nude, athymic mice. The cell lines selected are HT29 (ATCC number HTB-38), a colorectal adenocarcinoma, and A549 (ATCC number CCL-185), a lung carcinoma.
(§2) For this study, DMXAA is given twice in each of Weeks 1 and 4 of the study.
(§3) Xenografts are measured two or three times per week and their absolute volume recorded; xenograft tumour volume relative to that recorded on Day 0 (V0) is then calculated. The time taken to reach a relative tumour volume of 3× V0 is used as a surrogate marker for survival.

human tumours = settings: phase I, monotherapy, cited from earlier work
[3] = system: HT29 (colorectal) xenografts; settings: for Regression Duration: days tumour volume less than original treatment volume; for Tumour Growth Delay: treated versus control tumours to quadruple in volume (control 17 days); for Median VQT: tumour volume quadrupling time; for Response CR (Complete Response): undetectable tumour over two weeks; for Response PR (Partial Response): ≧50% reduction in tumour size sustained over two weeks
Description: as §1, §2, §3

[4] = cited from earlier work
[5] = diclofenac 100 mg/kg i.p., cited from earlier work

CC(=O)O[C@H]1C(=O)[C@@]2(C)[C@H]([C@H](OC(=O)c3ccccc3)[C@]3(O)C[C@H](OC(=O)[C@H](O)[C@@H](NC(=O)c4ccccc4)c4ccccc4)C(C)=C1C3(C)C)[C@]1(OC(C)=O)CO[C@@H]1C[C@@H]2O [Paclitaxel, paclitaxel]
Response SD (Stable Disease) [1]: 0 | TTP (median time to disease progression) [1]: 7 days | Drug deaths [1]: 0/11 | Regression Duration [1]: 0 days | Tumour Growth Delay [1]: 3 days | Median VQT [1]: 28 days | Response CR (Complete Response) [1]: 0 | Response PD (Progressive Disease) [1]: 11 | Response PR (Partial Response) [1]: 0

Cc1ccc2c(=O)c3cccc(CC(=O)O)c3oc2c1C [DMXAA, 5,6-dimethylxanthenone-4-acetic acid]
Response SD (Stable Disease) ([2]; Example 1): 0 | TTP (median time to disease progression) ([2]; Example 1): 14 days | Regression Duration [2]: 0 days | Tumour Growth Delay [2]: 32 days | Median VQT [2]: 57 days | Response CR (Complete Response) [2]: 0 | Response PD (Progressive Disease) ([2]; Example 1, ≧50% increase in tumour size): 11 | Response PR (Partial Response) [2]: 0 | tumour blood flow (dynamic MRI) (human tumours; well-tolerated doses): significant reduction in tumour blood flow | tumour responses (human tumours): very few tumour responses | Response SD (Stable Disease) [1]: 0 | TTP (median time to disease progression) [1]: 7 days | Drug deaths [1]: 4/11 | Regression Duration [1]: 0 days | Tumour Growth Delay [1]: >21 days | Median VQT [1]: >46 days | Response CR (Complete Response) [1]: 0 | Response PD (Progressive Disease) [1]: 7 | Response PR (Partial Response) [1]: 0 | Response SD (Stable Disease) [3]: 0 | TTP (median time to disease progression) [3]: 16 days | Regression Duration [3]: 10 days | Tumour Growth Delay [3]: 29 days | Median VQT [3]: 46 days | Response CR (Complete Response) [3]: 0 | Response PD (Progressive Disease) ([3]; ≧50% increase in tumour size): 5 | Response PR (Partial Response) [3]: 1

Avastin ™: humanised monoclonal antibody that binds to vascular endothelial growth factor (VEGF)
TTP (median time to disease progression) ([2]; Example 1): 8 days | Regression Duration [2]: 0 days | Tumour Growth Delay [2]: 42 days | Median VQT [2]: 67 days | Response CR (Complete Response) [2]: 0 | Response PR (Partial Response) [2]: 1 | TTP (median time to disease progression) [1]: 7 days | Drug deaths [1]: 0/11 | Regression Duration [1]: 0 days | Tumour Growth Delay [1]: >17 days | Median VQT [1]: >42 days | Response CR (Complete Response) [1]: 0 | Response PR (Partial Response) [1]: 0 | Regression Duration [3]: 0 days | Tumour Growth Delay [3]: 17 days | Median VQT [3]: 34 days | Response CR (Complete Response) [3]: 0 | Response PR (Partial Response) [3]: 0

O=C1CCC(N2C(=O)c3ccccc3C2=O)C(=O)N1 (centres unmarked) [Thalidomide, thalidomide]
increase of the AUC of DMXAA ([4]; in plasma, liver and spleen): 1.8 times | increase of the AUC of DMXAA ([4]; in tumour): three

O=C(O)Cc1ccccc1Nc1c(Cl)cccc1Cl [diclofenac]
increase in the plasma DMXAA AUC ([5]; female mice): 31% | increase in T1/2 of DMXAA ([5]; male and female mice, P<0.05): threefold | increase in the plasma DMXAA AUC ([5]; male mice): 24%
